Tests used:
[1] = test system: T1, dimeric PPO from Huaniu apple peel; experiment: spectrophotometric oxidation assay, Lineweaver-Burk; assay type: biochemical, Malus domestica; conditions: pH 5.0 citrate phosphate buffer, 25 °C
T1 construct: gene PPO2; native, purified from fruit peel (ammonium sulfate, DEAE-sepharose, Sephadex G-200); soluble PPO; about 140 kDa by native-PAGE and SDS-PAGE, 61 kDa monomer by urea-SDS-PAGE, homodimer
Description: spectrophotometric oxidation assay, Lineweaver-Burk on dimeric PPO from Huaniu apple peel

[2] = test system: T1, dimeric PPO from Huaniu apple peel; experiment: spectrophotometric oxidation assay at […] nm, Lineweaver-Burk; assay type: biochemical, Malus domestica; conditions: pH 5.0 citrate phosphate buffer, 25 °C; abstract 1.17, b44 prints 1.16

Q: How did the Km [1] turn out when `Oc1cc(O)c2c(c1)O[C@H](c1ccc(O)c(O)c1)[C@@H](O)C2` [CT, (+)-catechin] was run?
A: 4630 µM

Q: With `Cc1ccc(O)c(O)c1` [4-methylcatechol] as the compound, how does the Km [1] read?
A: 2470 µM

Q: Which Km ([1]; text prints 0.60) does the source give for `Oc1ccccc1O` [catechol] here?
A: 610 µM

Q: `Oc1cc(O)c2c(c1)O[C@H](c1ccc(O)c(O)c1)[C@H](O)C2` [EC, (−)-epicatechin] was tested. Which Km [2] did it give?
A: 1170 µM

Q: Which Km ([1]; text b44 prints 1.29, table value agrees with its Vmax/Km) does the source give for `O=C(/C=C/c1ccc(O)c(O)c1)O[C@@H]1C[C@](O)(C(=O)O)C[C@@H](O)[C@H]1O` [chlorogenic acid] here?
A: 2220 µM

Source: article PMC9223062, “Purification and Characterization of a Dark Red Skin Related Dimeric Polyphenol Oxidase from Huaniu Apples” (Foods, 2022)
